In patent publication US10710978B2, “STK4 inhibitors for treatment of hematologic malignancies” (Dana-Farber Cancer Institute, Inc., priority 2015, dated 2020):
“And” between values parts separate entries of the source, which are not always exact repeats. Equal values may be shown once. Read-outs that look alike come from different tables or passages of the source.

Experiments:
Assay in all cases: KiNativ assay
Type in all cases: binding
AMPKa1, AMPKa2 = conditions: H929 live cell
Protocol: (§1) Biochemical IC50s of the compounds of the present disclosure against various kinases were measured in a KiNativ assay. Compounds were screened in duplicate at 10 μM in H929 live cell. IC50 was measured via Mass spectroscopy (MS).

MAP3K1 = MAP3K1 (Homo sapiens (Human), UniProt Q13233); conditions: H929 live cell
Protocol: as §1

p70S6Kb = p70S6Kb (Homo sapiens (Human), UniProt Q9UBS0); conditions: H929 live cell
Protocol: as §1

TBK1 = TBK1 (Homo sapiens (Human), UniProt Q9UHD2); conditions: H929 live cell
Protocol: as §1

LATS1 = LATS1 (Homo sapiens (Human), UniProt O95835); conditions: H929 live cell
Protocol: as §1

MSK1 domain1 = MSK1 domain1 (Homo sapiens (Human), UniProt O75582); conditions: H929 live cell
Protocol: as §1

MAP3K4 = MAP3K4 (Homo sapiens (Human), UniProt Q9Y6R4); conditions: H929 live cell
Protocol: as §1

AurA = AurA (Homo sapiens (Human), UniProt O14965); conditions: H929 live cell
Protocol: as §1

OSR1 = OSR1 (Homo sapiens (Human), UniProt O95747); conditions: H929 live cell
Protocol: as §1

PIP4K2C = PIP4K2C (Homo sapiens (Human), UniProt Q8TBX8); conditions: H929 live cell
Protocol: as §1

PLK1 = PLK1 (Homo sapiens (Human), UniProt P53350); conditions: H929 live cell
Protocol: as §1

CSK = CSK (Homo sapiens (Human), UniProt P41240); conditions: H929 live cell
Protocol: as §1

ATR = ATR (Homo sapiens (Human), UniProt Q13535); conditions: H929 live cell, read-out: inhibition (10 μM)
Protocol: as §1

GCK = GCK (Homo sapiens (Human), UniProt Q12851); conditions: H929 live cell, read-out: inhibition (10 μM)
Protocol: as §1

NEK9 = NEK9 (Homo sapiens (Human), UniProt Q8TD19); conditions: H929 live cell
Protocol: as §1

MAP2K4 = MAP2K4 (Homo sapiens (Human), UniProt P45985); conditions: H929 live cell
Protocol: as §1

CDK11, CDK8 = conditions: H929 live cell
Protocol: as §1

STLK6 = STLK6 (Homo sapiens (Human), UniProt Q9C0K7); conditions: H929 live cell
Protocol: as §1

CHK1 = CHK1 (Homo sapiens (Human), UniProt O14757); conditions: H929 live cell
Protocol: as §1

ZAK = ZAK (Homo sapiens (Human), UniProt Q9NYL2); conditions: H929 live cell
Protocol: as §1

LYN = LYN (Homo sapiens (Human), UniProt P07948); conditions: H929 live cell
Protocol: as §1

FER = FER (Homo sapiens (Human), UniProt P16591); conditions: H929 live cell
Protocol: as §1

PRPK = PRPK (Homo sapiens (Human), UniProt Q96S44); conditions: H929 live cell
Protocol: as §1

BARK1 = BARK1 (Homo sapiens (Human), UniProt P25098); conditions: H929 live cell
Protocol: as §1

NDR2 = NDR2 (Homo sapiens (Human), UniProt Q9Y2H1); conditions: H929 live cell
Protocol: as §1

LOK = LOK (Homo sapiens (Human), UniProt O94804); conditions: H929 live cell
Protocol: as §1

PIK3CB = PIK3CB (Homo sapiens (Human), UniProt P42338); conditions: H929 live cell
Protocol: as §1

MARK2, MARK3 = conditions: H929 live cell
Protocol: as §1

NuaK2 = NuaK2 (Homo sapiens (Human), UniProt Q9H093); conditions: H929 live cell
Protocol: as §1

PAN3 = PAN3 (Homo sapiens (Human), UniProt Q58A45); conditions: H929 live cell
Protocol: as §1

MAP2K1, MAP2K2 = conditions: 10 μM, H929 live cell
Protocol: as §1

PITSLRE = conditions: H929 live cell
Protocol: as §1

NEK7 = NEK7 (Homo sapiens (Human), UniProt Q8TDX7); conditions: H929 live cell
Protocol: as §1

AurB = AurB (Homo sapiens (Human), UniProt Q96GD4); conditions: H929 live cell
Protocol: as §1

AurA, sequence (O14965 whole entry): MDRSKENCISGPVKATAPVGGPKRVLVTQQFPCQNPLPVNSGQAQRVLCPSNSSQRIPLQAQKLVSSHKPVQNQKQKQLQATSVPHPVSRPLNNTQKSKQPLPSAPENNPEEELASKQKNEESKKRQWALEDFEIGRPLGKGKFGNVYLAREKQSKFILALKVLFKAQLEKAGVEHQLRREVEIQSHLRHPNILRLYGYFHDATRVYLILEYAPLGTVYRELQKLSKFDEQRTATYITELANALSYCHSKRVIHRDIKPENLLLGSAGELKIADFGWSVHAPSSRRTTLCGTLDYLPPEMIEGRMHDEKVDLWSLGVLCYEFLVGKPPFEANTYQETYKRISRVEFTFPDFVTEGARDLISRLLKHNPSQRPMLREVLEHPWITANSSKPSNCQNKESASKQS
PIK3CB, sequence (P42338 whole entry): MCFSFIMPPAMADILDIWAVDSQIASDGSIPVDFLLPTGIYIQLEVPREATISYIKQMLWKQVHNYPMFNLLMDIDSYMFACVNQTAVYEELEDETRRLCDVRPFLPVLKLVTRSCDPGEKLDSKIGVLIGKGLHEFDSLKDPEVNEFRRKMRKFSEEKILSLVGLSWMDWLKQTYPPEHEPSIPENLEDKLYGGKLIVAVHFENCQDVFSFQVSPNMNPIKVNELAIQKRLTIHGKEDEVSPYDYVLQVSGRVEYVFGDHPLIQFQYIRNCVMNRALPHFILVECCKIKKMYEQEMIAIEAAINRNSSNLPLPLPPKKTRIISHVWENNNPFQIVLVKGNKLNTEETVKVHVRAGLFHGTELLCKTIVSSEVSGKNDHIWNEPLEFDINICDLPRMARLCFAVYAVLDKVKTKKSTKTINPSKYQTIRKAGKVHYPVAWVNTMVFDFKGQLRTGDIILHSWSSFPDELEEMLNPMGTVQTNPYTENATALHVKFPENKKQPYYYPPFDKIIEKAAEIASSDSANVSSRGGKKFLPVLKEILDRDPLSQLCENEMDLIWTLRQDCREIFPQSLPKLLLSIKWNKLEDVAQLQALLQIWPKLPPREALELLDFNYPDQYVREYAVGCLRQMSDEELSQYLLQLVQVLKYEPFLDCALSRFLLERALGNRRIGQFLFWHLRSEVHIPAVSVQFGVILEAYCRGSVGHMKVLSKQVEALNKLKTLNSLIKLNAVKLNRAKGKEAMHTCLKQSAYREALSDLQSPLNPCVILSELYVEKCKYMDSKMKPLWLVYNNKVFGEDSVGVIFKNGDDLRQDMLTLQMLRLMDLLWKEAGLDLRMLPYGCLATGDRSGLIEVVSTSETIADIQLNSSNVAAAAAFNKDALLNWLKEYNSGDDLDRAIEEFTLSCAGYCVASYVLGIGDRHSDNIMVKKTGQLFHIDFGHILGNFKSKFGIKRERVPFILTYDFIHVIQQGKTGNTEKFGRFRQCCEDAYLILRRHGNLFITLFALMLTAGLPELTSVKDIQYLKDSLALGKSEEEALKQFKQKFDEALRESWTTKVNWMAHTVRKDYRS
PIK3CB, sequence (P27986 whole entry partner): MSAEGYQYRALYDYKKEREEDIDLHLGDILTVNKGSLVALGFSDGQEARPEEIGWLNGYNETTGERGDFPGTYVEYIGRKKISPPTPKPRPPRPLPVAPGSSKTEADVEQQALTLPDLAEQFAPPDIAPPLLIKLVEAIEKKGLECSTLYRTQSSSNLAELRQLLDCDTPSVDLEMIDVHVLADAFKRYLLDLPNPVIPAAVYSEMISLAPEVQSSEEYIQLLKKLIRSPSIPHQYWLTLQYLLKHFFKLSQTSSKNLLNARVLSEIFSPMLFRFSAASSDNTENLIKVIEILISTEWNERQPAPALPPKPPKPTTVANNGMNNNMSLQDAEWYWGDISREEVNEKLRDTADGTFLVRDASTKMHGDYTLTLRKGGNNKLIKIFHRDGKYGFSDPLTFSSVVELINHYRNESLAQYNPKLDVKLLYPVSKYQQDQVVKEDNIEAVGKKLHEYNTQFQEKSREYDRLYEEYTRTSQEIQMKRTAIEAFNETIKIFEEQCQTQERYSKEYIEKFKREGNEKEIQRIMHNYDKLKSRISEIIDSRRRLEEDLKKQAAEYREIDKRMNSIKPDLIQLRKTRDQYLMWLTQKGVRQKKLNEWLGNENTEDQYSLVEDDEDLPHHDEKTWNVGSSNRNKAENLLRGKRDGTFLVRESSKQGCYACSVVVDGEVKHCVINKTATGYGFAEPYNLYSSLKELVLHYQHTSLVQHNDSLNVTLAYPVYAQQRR
PLK1, sequence (P53350 whole entry): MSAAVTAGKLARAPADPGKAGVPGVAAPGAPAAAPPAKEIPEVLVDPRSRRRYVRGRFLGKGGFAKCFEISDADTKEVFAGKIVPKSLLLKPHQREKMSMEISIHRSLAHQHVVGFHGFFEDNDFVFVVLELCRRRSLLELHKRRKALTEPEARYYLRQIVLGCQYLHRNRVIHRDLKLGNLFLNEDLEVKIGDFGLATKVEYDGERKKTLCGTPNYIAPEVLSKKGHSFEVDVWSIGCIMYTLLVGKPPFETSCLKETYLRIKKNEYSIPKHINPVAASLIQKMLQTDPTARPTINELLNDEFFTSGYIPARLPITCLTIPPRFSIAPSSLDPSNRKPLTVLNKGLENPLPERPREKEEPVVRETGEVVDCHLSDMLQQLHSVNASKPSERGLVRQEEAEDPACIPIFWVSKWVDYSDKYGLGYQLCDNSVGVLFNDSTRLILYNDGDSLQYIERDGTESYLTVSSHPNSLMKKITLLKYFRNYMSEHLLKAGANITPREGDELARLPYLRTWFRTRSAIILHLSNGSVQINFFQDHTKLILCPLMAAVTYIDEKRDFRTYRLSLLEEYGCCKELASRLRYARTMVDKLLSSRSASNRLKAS
LYN, sequence (P07948 whole entry): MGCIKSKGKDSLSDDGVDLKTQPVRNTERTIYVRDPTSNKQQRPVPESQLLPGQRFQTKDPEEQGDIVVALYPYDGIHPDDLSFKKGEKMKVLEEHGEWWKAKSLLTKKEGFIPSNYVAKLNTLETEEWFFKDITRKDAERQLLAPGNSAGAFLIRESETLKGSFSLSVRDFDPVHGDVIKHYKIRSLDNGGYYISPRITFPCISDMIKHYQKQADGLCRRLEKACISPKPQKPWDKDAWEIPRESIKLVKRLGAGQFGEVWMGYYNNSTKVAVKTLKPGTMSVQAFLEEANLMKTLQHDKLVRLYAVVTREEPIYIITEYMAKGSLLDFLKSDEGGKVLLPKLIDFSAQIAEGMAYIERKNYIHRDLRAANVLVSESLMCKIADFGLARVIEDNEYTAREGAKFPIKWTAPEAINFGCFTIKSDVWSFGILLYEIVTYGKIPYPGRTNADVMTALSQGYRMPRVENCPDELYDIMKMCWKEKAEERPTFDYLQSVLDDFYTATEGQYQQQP
MSK1 domain1, sequence (O75582 whole entry, the tested form may be a part): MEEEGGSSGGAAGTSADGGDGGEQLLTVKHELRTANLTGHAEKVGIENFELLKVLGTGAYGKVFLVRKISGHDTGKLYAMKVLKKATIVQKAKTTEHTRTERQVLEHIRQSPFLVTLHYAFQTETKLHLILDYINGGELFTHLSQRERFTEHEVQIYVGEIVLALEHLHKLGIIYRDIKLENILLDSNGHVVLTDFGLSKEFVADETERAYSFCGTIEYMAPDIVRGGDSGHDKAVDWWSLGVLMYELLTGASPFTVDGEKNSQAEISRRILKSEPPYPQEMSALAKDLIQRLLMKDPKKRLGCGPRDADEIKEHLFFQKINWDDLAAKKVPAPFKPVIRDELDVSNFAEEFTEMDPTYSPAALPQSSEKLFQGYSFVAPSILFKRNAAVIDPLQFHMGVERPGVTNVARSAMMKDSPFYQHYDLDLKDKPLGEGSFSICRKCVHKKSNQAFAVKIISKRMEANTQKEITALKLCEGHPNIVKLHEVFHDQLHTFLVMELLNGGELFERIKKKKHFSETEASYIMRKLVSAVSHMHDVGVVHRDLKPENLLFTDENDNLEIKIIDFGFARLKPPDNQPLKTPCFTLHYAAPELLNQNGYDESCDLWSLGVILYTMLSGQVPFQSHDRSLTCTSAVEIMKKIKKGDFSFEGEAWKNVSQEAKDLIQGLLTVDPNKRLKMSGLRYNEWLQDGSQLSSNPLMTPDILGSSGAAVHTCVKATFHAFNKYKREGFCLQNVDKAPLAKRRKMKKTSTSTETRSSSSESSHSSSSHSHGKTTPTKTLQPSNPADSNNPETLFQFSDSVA
PIP4K2C, sequence (Q8TBX8 whole entry): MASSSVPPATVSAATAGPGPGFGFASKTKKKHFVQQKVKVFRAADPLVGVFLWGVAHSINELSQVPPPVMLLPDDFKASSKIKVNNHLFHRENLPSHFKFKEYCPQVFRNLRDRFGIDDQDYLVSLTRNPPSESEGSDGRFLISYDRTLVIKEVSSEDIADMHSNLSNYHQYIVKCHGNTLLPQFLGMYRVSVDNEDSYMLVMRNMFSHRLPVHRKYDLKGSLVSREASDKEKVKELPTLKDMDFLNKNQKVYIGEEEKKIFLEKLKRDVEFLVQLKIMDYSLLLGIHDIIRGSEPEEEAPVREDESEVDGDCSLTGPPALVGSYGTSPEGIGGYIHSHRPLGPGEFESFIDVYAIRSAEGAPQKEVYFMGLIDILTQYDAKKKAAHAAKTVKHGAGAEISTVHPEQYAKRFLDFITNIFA
AurB, sequence (Q96GD4 whole entry): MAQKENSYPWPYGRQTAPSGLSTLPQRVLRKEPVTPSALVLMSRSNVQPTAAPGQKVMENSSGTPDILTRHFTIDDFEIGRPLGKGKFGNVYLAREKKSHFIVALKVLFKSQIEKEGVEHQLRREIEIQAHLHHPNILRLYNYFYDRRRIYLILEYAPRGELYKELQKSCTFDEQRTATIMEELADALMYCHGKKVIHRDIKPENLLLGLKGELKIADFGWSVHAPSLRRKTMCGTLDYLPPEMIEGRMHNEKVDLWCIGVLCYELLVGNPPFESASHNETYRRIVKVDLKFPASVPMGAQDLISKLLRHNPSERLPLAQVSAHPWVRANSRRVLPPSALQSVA

Nc1ncc(-c2cccc([N+](=O)[O-])c2F)cc1-c1ccc2c(c1)CCNC2=O [Compound I-9, 6-(2-amino-5-(2-fluoro-3-nitrophenyl)pyridin-3-yl)-3,4-dihydroisoquinolin-1(2H)-one]
% inhibition (range) (AMPKa1, AMPKa2; 10 μM): 50-75%
inhibition (10 μM) (AMPKa1, AMPKa2): 52.0%
inhibition at 10 µM (MAP3K1; read-out: % inhibition (range)): > 90%
inhibition at 10 µM (MAP3K1; read-out: inhibition (10 μM)): 95.6%
inhibition at 10 µM (p70S6Kb; read-out: % inhibition (range)): 0%
inhibition at 10 µM (p70S6Kb; read-out: inhibition (10 μM)): -84.5%
inhibition at 10 µM (TBK1; read-out: % inhibition (range)): 0%
inhibition at 10 µM (TBK1; read-out: inhibition (10 μM)): 23.7%
inhibition at 10 µM (LATS1; read-out: % inhibition (range)): 0%
inhibition at 10 µM (LATS1; read-out: inhibition (10 μM)): 33.1%
inhibition at 10 µM (MSK1 domain1; read-out: % inhibition (range)): 0%
inhibition at 10 µM (MSK1 domain1; read-out: inhibition (10 μM)): 2%
inhibition at 10 µM (MAP3K4; read-out: % inhibition (range)): 0%
inhibition at 10 µM (MAP3K4; read-out: inhibition (10 μM)): -9.6%
% inhibition (range) (AurA; 10 μM): 50-75% and 75-90%
inhibition (10 μM) (AurA): 75.7%
inhibition at 10 µM (AurA; read-out: inhibition (10 μM)): 68.5%
inhibition at 10 µM (OSR1; read-out: % inhibition (range)): 0%
inhibition at 10 µM (OSR1; read-out: inhibition (10 μM)): -11.8%
inhibition at 10 µM (PIP4K2C; read-out: % inhibition (range)): 50 to 75%
inhibition at 10 µM (PIP4K2C; read-out: inhibition (10 μM)): 65.7%
inhibition at 10 µM (PLK1; read-out: % inhibition (range)): 0%
inhibition at 10 µM (PLK1; read-out: inhibition (10 μM)): 14.2%
inhibition at 10 µM (CSK; read-out: % inhibition (range)): 0%
inhibition at 10 µM (CSK; read-out: inhibition (10 μM)): -4.5%
inhibition at 10 µM (ATR): 37.5%
inhibition at 10 µM (GCK): 91.5%
inhibition at 10 µM (NEK9; read-out: % inhibition (range)): 0%
inhibition at 10 µM (NEK9; read-out: inhibition (10 μM)): -38.3%
inhibition at 10 µM (MAP2K4; read-out: % inhibition (range)): 50 to 75%
inhibition at 10 µM (MAP2K4; read-out: inhibition (10 μM)): 72.9%
inhibition (10 μM) (CDK11, CDK8): 35.5%
inhibition at 10 µM (STLK6; read-out: % inhibition (range)): 0%
inhibition at 10 µM (STLK6; read-out: inhibition (10 μM)): -47.7%
inhibition at 10 µM (CHK1; read-out: % inhibition (range)): 0%
inhibition at 10 µM (CHK1; read-out: inhibition (10 μM)): 14.9%
inhibition at 10 µM (ZAK; read-out: % inhibition (range)): 35 to 50%
inhibition at 10 µM (ZAK; read-out: inhibition (10 μM)): 42%
inhibition at 10 µM (LYN; read-out: % inhibition (range)): 0%
inhibition at 10 µM (LYN; read-out: inhibition (10 μM)): -12.4%
inhibition at 10 µM (FER; read-out: % inhibition (range)): 0%
inhibition at 10 µM (FER; read-out: inhibition (10 μM)): 27.4%
inhibition at 10 µM (PRPK; read-out: % inhibition (range)): 0%
inhibition at 10 µM (PRPK; read-out: inhibition (10 μM)): -5%
inhibition at 10 µM (BARK1; read-out: % inhibition (range)): 0%
inhibition at 10 µM (BARK1; read-out: inhibition (10 μM)): 2.8%
inhibition at 10 µM (NDR2; read-out: % inhibition (range)): 0%
inhibition at 10 µM (NDR2; read-out: inhibition (10 μM)): -9.5%
inhibition at 10 µM (LOK; read-out: % inhibition (range)): > 90%
inhibition at 10 µM (LOK; read-out: inhibition (10 μM)): 98.5%
inhibition at 10 µM (PIK3CB; read-out: % inhibition (range)): 0%
inhibition at 10 µM (PIK3CB; read-out: inhibition (10 μM)): 14.6%
% inhibition (range) (MARK2, MARK3; 10 μM): 50-75%
inhibition (10 μM) (MARK2, MARK3): 70.2%
inhibition at 10 µM (NuaK2; read-out: % inhibition (range)): 50 to 75%
inhibition at 10 µM (NuaK2; read-out: inhibition (10 μM)): 58.7%
inhibition at 10 µM (PAN3; read-out: % inhibition (range)): 0%
inhibition at 10 µM (PAN3; read-out: inhibition (10 μM)): -7.1%
% inhibition (range) (MAP2K1, MAP2K2): 0.0%
% inhibition (range) (PITSLRE; 10 μM): 35-50%
inhibition (10 μM) (PITSLRE): 38.9%
inhibition at 10 µM (NEK7; read-out: % inhibition (range)): 0%
inhibition at 10 µM (NEK7; read-out: inhibition (10 μM)): -39.5%
inhibition at 10 µM (AurB; read-out: % inhibition (range)): 50 to 75%
inhibition at 10 µM (AurB; read-out: inhibition (10 μM)): 53.4%
